In test [1] the target is CDK12/Cyclin K (Homo sapiens) (UniProt O75909+Q9NYV4). In words: Inhibition of recombinant full length human CDK12/cyclinK assessed as residual activity at 1 uM using RSRSRSRSRSRSRSR as substrate incubated for 120 mins in presence of [gamma-33ATP] by scintillation counting based radiometry assay relative to control. The class given is protein-complex assay.
Test [2] has as its target Dual specificity protein kinase CLK1 (Homo sapiens) (UniProt P49759). In words: Inhibition of recombinant human CLK1 (130 to end residues) assessed as residual activity at 1 uM using ERMRPRKRQGSVR as substrate incubated 40 mins in presence of [gamma-33ATP] by scintillation counting based radiometry assay relative to control.
Test [3] has as its target Mast/stem cell growth factor receptor Kit (Homo sapiens) (UniProt P10721). In words: Inhibition of recombinant human c-Kit (544 to end residues) assessed as residual activity at 1 uM using poly(Glu, Tyr) 4:1 as substrate measured after 40 mins in presence of [gamma33P]ATP by scintillation counting method.
Test [4] deals with Death-associated protein kinase 1 (Homo sapiens) (UniProt P53355). In words: Inhibition of recombinant human DAPK1 (1 to 296 residues) assessed as residual activity at 1 uM KKLNRTLSFAEPG as substrate incubated 40 mins in presence of [gamma-33ATP] by scintillation counting based radiometry assay relative to control.
Test [5] concerns the target Ephrin type-A receptor 5 (Homo sapiens) (UniProt P54756). Description: Inhibition of recombinant human EphA5 (655to 956 residues) assessed as residual activity at 1 uM using poly(Glu, Tyr) 4:1 as substrate at 40 mins in presence of [gamma-33ATP] by scintillation counting based radiometry assay relative to control.
Test [6] deals with Ephrin type-A receptor 8 (Homo sapiens) (UniProt P29322). Description: Inhibition of recombinant human EphA8 (615 to 911 residues) assessed as residual activity at 1 uM using KTFCGTPEYLAPEVRREPRILSEEEQEMFRDFDYIADWC as substrate at 40 mins in presence of [gamma-33ATP] by scintillation counting based radiometry assay relative to control.
The species entered for test [7] is Homo sapiens. In words: Inhibition of recombinant human EphB2 A848S/K918E mutant (560 to end residues) assessed as residual activity at 1 uM using poly(Glu, Tyr) 4:1 as substrate at 40 mins in presence of [gamma-33ATP] by scintillation counting based radiometry assay relative to control.
In test [8] the test system is eIF-2-alpha kinase GCN2 (Homo sapiens), Q9P2K8 [E556G]. In words: Inhibition of recombinant full length human GCN2 E556G mutant assessed as residual activity at 1 uM using RSRSRSRSRSRSRSR as substrate at 40 mins in presence of [gamma-33ATP] by scintillation counting based radiometry assay relative to control.
For test [9], the target named is Mitogen-activated protein kinase kinase kinase kinase 5 (Homo sapiens) (UniProt Q9Y4K4). Description: Inhibition of recombinant human MAP4K5 assessed as residual activity at 1 uM using myelin basic protein as substrate incubated for 40 mins in presence of [gamma-33ATP by scintillation counting based radiometry assay relative to control.
For test [10], the species on record is Homo sapiens. In words: Inhibition of recombinant human MER H628Q/R794A mutant (557 to 882 residues) assessed as residual activity at 1 uM using GGMEDIYFEFMGGKKK as substrate incubated for 40 mins in presence of [gamma-33ATP by scintillation counting based radiometry assay relative to control.
The subject of test [11] is Hepatocyte growth factor receptor (Homo sapiens), P08581 [Y1230H]. In words: Inhibition of recombinant human MET A1209G/V1290L/Y1248H mutant (974 to end residues) assessed as residual activity at 1 uM using KKKGQEEEYVFIE as substrate incubated for 40 mins in presence of [gamma-33ATP by scintillation counting based radiometry assay relative to control.
The target in test [12] is Myosin light chain kinase, smooth muscle (Homo sapiens) (UniProt Q15746). Description: Inhibition of recombinant human MLCK (1425 to 1771 residues) assessed as residual activity at 1 uM […] incubated for 40 mins in presence of [gamma-33ATP by scintillation counting based radiometry assay relative to control.
For test [13], the target named is Serine/threonine-protein kinase PAK 3 (Homo sapiens) (UniProt O75914). Description: Inhibition of recombinant full-length human PAK3 assessed as residual activity at 1 uM using RRRLSFAEPG as substrate measured after 40 mins in presence of [gamma33P]ATP by scintillation counting method relative to control.
Test [14] addresses Protein kinase C delta type (Homo sapiens) (UniProt Q05655). In words: Inhibition of recombinant human PKCdelta (2 to end residues) assessed as residual activity at 1 uM using ERMRPRKRQGSVRRRV as substrate measured after 40 mins in presence of [gamma33P]ATP by scintillation counting method relative to control.
In test [15] the target is Protein kinase C zeta type (Homo sapiens) (UniProt Q05513). In words: Inhibition of recombinant human PKCzeta (2 to end residues) assessed as residual activity at 1 uM using ERMRPRKRQGSVRRRV as substrate measured after 40 mins in presence of [gamma33P]ATP by scintillation counting method relative to control.
For test [16], the target named is Tyrosine-protein kinase FRK (Homo sapiens) (UniProt P42685). Description: Inhibition of recombinant human PTK5 (218 to end residues) assessed as residual activity at 1 uM using GGEEEEYFELVKKKK as substrate measured after 40 mins in presence of [gamma33P]ATP by scintillation counting method relative to control.
The subject of test [17] is Proto-oncogene tyrosine-protein kinase receptor Ret (Homo sapiens), P07949 [V804L]. In words: Inhibition of recombinant human Ret V804L mutant (658 to end residues) assessed as residual activity at 1 uM using KKKSPGEYVNIEFG as substrate measured after 40 mins in presence of [gamma33P]ATP by scintillation counting method relative to control.
The subject of test [18] is Serine/threonine-protein kinase Sgk1 (Homo sapiens), O00141 [S422D]. Description: Inhibition of recombinant human SGK S422D mutant (60 to end residues) assessed as residual activity at 1 uM using GRPRTSSFAEGKK as substrate measured after 40 mins in presence of [gamma33P]ATP by scintillation counting method relative to control.
For test [19], the target named is Serine/threonine-protein kinase 32A (Homo sapiens) (UniProt Q8WU08). Description: Inhibition of recombinant full-length human STK32A at 1 uM assessed as residual activity at 1 uM using casein as substrate measured after 120 mins in presence of [gamma33P]ATP by scintillation counting method relative to control.
The target in test [20] is Non-receptor tyrosine-protein kinase TYK2 (Homo sapiens) (UniProt P29597). Description: Inhibition of human TYK2 (875 to end residues) assessed as residual activity at 1 uM using GGMEDIYFEFMGGKKK as substrate measured after 40 mins in presence of [gamma33P]ATP by scintillation counting method relative to control.
Chain of Non-receptor tyrosine-protein kinase TYK2 (Homo sapiens) (P29597 whole entry): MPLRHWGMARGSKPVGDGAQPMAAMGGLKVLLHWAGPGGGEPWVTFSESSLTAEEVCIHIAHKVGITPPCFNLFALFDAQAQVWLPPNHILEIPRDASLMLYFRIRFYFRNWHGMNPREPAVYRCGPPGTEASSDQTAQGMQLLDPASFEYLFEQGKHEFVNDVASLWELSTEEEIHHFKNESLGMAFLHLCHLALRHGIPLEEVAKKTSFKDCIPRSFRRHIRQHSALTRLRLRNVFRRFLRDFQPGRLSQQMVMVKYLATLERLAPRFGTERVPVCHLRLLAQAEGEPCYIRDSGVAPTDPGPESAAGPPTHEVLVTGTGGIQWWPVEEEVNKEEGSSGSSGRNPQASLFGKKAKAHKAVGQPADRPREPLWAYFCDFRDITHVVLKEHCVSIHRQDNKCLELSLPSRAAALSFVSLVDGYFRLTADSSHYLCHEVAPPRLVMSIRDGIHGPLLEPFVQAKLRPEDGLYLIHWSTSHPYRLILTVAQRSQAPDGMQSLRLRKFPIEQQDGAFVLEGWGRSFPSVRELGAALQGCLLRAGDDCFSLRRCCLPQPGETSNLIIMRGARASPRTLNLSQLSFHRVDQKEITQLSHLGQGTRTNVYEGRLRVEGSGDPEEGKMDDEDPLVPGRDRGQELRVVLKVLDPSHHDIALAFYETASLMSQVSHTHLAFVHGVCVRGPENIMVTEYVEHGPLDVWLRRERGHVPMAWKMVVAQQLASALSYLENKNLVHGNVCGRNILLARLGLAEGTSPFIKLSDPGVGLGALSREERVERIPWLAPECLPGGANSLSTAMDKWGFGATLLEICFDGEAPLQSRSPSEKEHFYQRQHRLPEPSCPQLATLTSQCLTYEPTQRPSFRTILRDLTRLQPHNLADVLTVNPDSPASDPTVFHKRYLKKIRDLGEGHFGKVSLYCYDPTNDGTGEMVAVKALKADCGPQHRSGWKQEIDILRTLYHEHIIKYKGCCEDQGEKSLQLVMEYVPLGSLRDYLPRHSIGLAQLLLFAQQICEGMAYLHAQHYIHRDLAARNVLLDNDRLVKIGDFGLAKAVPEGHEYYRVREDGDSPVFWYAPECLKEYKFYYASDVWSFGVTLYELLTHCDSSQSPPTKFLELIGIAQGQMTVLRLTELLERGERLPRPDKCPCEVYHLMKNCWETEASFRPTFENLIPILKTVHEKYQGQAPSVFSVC

Chain of Death-associated protein kinase 1 (Homo sapiens) (P53355 whole entry, looked up, the tested form may be a part): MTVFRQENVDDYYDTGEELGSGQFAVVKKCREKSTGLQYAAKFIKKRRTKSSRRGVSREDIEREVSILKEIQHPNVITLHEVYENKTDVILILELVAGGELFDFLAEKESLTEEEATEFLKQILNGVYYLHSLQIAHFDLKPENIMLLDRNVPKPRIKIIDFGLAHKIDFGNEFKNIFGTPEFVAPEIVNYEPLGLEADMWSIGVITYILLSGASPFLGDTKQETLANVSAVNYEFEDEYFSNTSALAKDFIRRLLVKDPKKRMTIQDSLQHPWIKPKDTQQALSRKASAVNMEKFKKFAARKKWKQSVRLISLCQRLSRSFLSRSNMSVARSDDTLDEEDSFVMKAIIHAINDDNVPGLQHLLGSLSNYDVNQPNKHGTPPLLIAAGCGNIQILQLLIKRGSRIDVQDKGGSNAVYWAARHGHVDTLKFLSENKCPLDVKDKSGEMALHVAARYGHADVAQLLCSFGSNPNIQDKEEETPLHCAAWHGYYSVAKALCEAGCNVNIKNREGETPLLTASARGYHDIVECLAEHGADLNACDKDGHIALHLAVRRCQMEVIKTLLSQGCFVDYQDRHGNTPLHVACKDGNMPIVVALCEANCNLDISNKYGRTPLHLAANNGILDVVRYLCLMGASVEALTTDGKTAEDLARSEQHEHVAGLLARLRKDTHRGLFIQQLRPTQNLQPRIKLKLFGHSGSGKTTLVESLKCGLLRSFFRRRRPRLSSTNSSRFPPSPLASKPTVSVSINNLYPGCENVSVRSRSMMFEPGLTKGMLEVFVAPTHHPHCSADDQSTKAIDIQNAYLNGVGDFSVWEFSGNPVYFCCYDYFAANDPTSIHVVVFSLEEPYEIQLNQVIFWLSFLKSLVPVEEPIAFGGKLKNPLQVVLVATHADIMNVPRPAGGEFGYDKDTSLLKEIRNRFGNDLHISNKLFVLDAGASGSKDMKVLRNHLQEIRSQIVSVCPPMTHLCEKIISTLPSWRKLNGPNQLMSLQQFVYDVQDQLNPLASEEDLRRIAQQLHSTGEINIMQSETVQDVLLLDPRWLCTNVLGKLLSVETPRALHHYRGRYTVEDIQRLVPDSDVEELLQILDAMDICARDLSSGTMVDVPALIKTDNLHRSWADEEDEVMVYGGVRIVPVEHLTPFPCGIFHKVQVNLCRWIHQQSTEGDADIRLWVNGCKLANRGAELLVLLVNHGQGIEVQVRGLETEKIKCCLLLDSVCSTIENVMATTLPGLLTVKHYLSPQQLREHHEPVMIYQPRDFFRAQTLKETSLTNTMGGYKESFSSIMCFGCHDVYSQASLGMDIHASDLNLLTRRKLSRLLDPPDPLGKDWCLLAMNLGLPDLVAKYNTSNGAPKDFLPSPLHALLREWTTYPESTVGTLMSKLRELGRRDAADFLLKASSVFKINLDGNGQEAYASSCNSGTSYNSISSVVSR
Chain of Serine/threonine-protein kinase Sgk1 (Homo sapiens), O00141 [S422D] (O00141 whole entry S422D): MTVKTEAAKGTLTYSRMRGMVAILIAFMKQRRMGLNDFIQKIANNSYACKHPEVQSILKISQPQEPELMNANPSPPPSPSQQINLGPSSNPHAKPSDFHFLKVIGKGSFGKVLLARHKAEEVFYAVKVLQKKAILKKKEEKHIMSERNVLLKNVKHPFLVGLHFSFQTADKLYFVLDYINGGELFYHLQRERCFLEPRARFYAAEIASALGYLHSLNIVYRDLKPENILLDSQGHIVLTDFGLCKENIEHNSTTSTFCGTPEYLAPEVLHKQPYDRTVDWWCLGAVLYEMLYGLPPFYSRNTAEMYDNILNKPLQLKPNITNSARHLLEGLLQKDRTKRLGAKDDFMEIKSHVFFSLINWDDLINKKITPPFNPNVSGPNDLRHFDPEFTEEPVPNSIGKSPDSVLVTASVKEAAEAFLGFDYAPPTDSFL
Chain of Protein kinase C zeta type (Homo sapiens) (Q05513 whole entry): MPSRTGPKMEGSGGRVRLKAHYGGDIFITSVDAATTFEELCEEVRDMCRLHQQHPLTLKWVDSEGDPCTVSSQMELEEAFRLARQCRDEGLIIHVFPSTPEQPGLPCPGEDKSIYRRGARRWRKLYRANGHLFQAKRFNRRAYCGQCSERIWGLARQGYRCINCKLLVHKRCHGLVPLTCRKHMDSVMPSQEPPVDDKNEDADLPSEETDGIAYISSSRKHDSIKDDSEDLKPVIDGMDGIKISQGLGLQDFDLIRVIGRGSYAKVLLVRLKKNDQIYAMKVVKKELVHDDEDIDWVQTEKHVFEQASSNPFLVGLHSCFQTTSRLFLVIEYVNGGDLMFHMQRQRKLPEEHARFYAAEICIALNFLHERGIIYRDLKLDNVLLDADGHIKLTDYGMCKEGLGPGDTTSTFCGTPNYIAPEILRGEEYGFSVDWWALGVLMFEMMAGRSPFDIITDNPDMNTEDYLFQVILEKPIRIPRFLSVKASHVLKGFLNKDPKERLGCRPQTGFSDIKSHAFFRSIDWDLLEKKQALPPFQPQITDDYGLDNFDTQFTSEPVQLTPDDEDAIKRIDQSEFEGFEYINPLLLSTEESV
Chain of Serine/threonine-protein kinase PAK 3 (Homo sapiens) (O75914 whole entry, looked up): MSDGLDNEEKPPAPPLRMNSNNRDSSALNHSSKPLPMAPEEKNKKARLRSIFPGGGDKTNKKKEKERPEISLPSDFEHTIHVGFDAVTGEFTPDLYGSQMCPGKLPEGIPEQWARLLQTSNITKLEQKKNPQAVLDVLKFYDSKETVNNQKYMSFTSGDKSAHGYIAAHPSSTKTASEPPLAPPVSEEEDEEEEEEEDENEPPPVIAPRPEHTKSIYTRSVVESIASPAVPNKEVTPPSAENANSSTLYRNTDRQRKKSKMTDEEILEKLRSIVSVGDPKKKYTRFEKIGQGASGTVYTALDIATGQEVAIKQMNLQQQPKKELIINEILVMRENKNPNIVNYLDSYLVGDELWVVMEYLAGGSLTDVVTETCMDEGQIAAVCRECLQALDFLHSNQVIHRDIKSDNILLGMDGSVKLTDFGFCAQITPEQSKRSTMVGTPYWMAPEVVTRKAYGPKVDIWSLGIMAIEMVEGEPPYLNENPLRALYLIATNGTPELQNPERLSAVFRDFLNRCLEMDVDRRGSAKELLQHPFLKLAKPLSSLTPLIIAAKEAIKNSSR
Chain of Dual specificity protein kinase CLK1 (Homo sapiens) (P49759 whole entry, looked up): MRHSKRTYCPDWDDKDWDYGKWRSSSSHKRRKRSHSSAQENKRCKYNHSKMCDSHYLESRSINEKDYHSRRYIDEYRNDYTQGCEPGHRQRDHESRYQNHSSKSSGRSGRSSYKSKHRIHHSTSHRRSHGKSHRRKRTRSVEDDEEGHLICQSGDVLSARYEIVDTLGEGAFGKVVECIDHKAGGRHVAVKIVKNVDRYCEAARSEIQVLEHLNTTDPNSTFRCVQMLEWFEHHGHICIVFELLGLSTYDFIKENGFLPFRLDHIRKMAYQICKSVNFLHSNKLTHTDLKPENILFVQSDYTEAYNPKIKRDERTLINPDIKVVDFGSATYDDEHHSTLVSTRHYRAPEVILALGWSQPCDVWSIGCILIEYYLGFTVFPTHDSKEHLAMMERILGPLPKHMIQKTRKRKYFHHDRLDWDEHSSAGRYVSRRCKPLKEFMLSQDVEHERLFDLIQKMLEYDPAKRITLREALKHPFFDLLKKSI

In the case of `N=C1NC(=O)/C(=C\c2ccc(-c3cccc([N+](=O)[O-])c3)o2)S1`, the Activity turned out to be 98% in [1]; 50% in test [2]; 112% in test [3]; 84% in test [4]; 89% in [5]; 94% in test [6]. Moreover, the Activity in [7] is 96%; in test [8], 104%; in test [9] it was 95%; in [10], 97%; in test [11], 106%; in test [12], 37%. The Activity in test [13] was 95%; in test [14], 103%; in test [15] it was 108%; in [16], 92%; in test [17] it was 97%; in [18] it was 98%. In addition, the Activity in test [19] worked out at 100%; in [20] it was 107%.

For the compound `C=CCOC(=O)c1cc(-c2ccc(/C=C3/NC(=S)NC3=O)o2)ccc1Cl`, the Activity in test [1] stood at 96%; in test [2] it was 26%; in test [3], 101%; in [4], 92%; in test [5], 100%; in test [6], 99%. Also, the Activity in test [7] came out at 140%; in test [8], 106%; in test [9], 94%; in test [10], 101%; in [11], 116%; in [12], 89%. In addition, the Activity in test [13] was 102%; in test [14] it was 96%; in test [15], 96%; in test [16], 96%; in test [17], 98%; in test [18], 91%. The Activity in test [19] was 101%; in test [20] it was 94%.

(Values after ChEMBL document CHEMBL4334438, “Discovery of novel glycogen synthase kinase-3α inhibitors: Structure-based virtual screening, preliminary SAR and biological evaluation for treatment of acute myeloid leukemia” (Eur J Med Chem, 2019).)
